Laboratory results as given in patent publication US8889826B2, “Peptide antibiotics and methods for making same” (priority 2004, dated 2014).

What was measured:
[1] = tested on: Escherichia coli, ATCC #26; experiment: MIC by serial twofold broth dilution, E. coli; type: cell-based; design: unit not given here; details: Mueller Hinton broth
Text: (§1) The antibacterial activities of certain new compounds are indicated in Table 4 as their minimum inhibitory concentrations (MICs) against Escherichia coli, Staphylococcus aureus, and Pseudomonas aeruginosa. MICs can be determined by the conditions disclosed in Table 4, as well as in Jarolmen, H. et al., “Activity of Minocycline Against R-Factor Carrying Enterobacteriaceae,” Infectious Immunity, Vol. 1, No. 4, pp. 321-326, 1970, the disclosure of which is incorporated herein by reference.

[2] = tested on: Staphylococcus aureus Smith; experiment: MIC by serial twofold broth dilution, Staph; type: cell-based; design: unit not given here; details: Mueller Hinton broth
Text: as §1

[3] = tested on: Pseudomonas aeruginosa, ATCC 27853; experiment: MIC by serial twofold broth dilution, Pseudo; type: cell-based; design: unit not given here; details: Mueller Hinton broth
Text: as §1

[4] = human, in vivo; cited from earlier work

Row | Substance | E. coli MIC [1] | Staph MIC [2] | Pseudo MIC [3] | neurotoxicity, overall incidence [4] [%]
1 | Colistin [reference compound] | 0.6 | >20 | 0.6 | 7.3
2 | Cyclohexylcarbamyl-[Ile^7]-Polymyxin Decapeptide [Compound 48] | 0.6 |  | 0.6 | 
3 | N-(n-Decanoyl)phenylalanyl-colistin decapeptide [Compound 52] | 1.25 | 2.5 | 2.5 | 
4 | P-Toluenesulfonyl-Colistin decapeptide [Compound 53] | 1.25 | >20 | 0.6 | 
5 | Polymyxin B1 [reference compound] | 0.6 | 10 | 0.6 | 
6 | Polymyxin B [reference compound] | 0.6 | >10 | 0.6 | 
7 | [Ile^7]-polymyxin B1 [reference compound] | 0.6 | 20 | 1.25 | 
8 | n-Octylcarbamyl-colistin decapeptide [Compound 51] | 1.25 | 20 | 0.6 | 
